The text below walks through data of patent US20250161312A1, “A METHOD FOR THE TREATMENT OF CHEMOTHERAPEUTIC DRUG-INDUCED NEPHROTOXICITY” (INSTITUT NATIONAL DE LA SANTÉ ET DE LA RECHERCHE MÉDICALE, priority 2022, published 2025).

Each structure is given as a SMILES string.

In data set [1] the test system is LLC1 cells. As to the kind of experiment: γH2AX immunostaining in LLC1 cells. Type of data set: cell-based, mouse. The following applies: 2 μM cisplatin, 10 nM KW-6002, 6 hours, FIG. 7B. Here is the method:
FIG. 7. […] Caspase 3/-7 activity (n=3 independent experiments) (A) and the number of γH2AX nuclear foci (n=36-63 nuclei/group) (B) were determined. […] Results are expressed as the mean±SEM (n=3 independent experiments). (E) Tail moment was assessed by comet assay. A total of 50 cells per condition were analyzed. *** P<0.001; 1-way ANOVA followed by Tukey's post hoc test. […] (I) KW6002 increased yH2AX expression in tumors from mice of the LLC1 syngeneic model. Quantification of nuclear yH2AX expression.
Cells were fixed with 4% paraformaldehyde, permeabilized with DPBS/0.1% Triton X100 and incubated with γH2AX (Ser139) antibody (1/400; #9718, Cell Signaling Technology) and then, Alexa Fluor 488 secondary antibody (1/200; Life Technologies). Samples were examined on an immunofluorescence microscope (Leica™ DMI8) and γH2AX nuclear foci were counted.

The test system of data set [2] is C57BL6/J mice. As to the kind of experiment: Sub-chronic cisplatin-induced kidney injury model. Type of data set: in vivo. On the procedure:
FIG. 1. Schematic representation of the different animal procedures. (A) Acute cisplatin-induced kidney injury. […] (B) Sub-chronic cisplatin-induced kidney injury. […] (C) KW-6002 administration schedule in the acute model. […] (D) KW-6002 administration schedule in the sub-chronic model.
Animal experiments were adapted from 63-64. Animal procedures were performed in 8 to 10 weeks old male C57B16/J mice (Janvier Labs). Mice were fed a laboratory standard diet with water and food ad libitum and were kept under constant environmental conditions with a 12-hour light-dark cycle. Istradefylline (KW-6002; Tocris) was dissolved in a carrier solution consisting in 15% DMSO, 15% cremophor (Sigma), 70% saline solution (vehicle). Cisplatin (Accord Healthcare) was dissolved in saline solution. […] Three days after this single injection, animals were sacrificed by cervical dislocation (FIG. 1A).
Prior sacrifice by cervical dislocation, retro-orbital blood samples were collected in heparinized tubes and centrifuged for 10 min at 2000 rpm at room temperature. Renal function was assessed by Blood urea nitrogen (BUN) measurement using a AU480 Chemistry Analyzer (Beckman Coulter). At the time of sacrifice, kidneys or LLC1 tumors were harvested and stored in either “RNA later” solution (Thermo Fisher), 4% neutral buffered formalin or snap-frozen in liquid nitrogen.
Formalin-fixed and paraffin-embedded sections (3 μm thick) were stained with Hematoxylin and Eosin (Sigma Aldrich) or Periodic Acid-Schiff (Sigma-Aldrich). Slices were scored by a nephropathologist in a blinded manner. A kidney injury score grading scale from 0 to 5 was used to assess the severity of the injury as follow: 0=no lesions, 1=minimal injury characterized by occurrence of necrosis and debris; 2=mild injury with single cell necrosis, pyknotic cells, and apoptosis; 3=moderate injury characterized by tubular distension, vacuolation, and some cellular debris, 4=severe injury with occasional hyaline casts observed, patchy epithelial necrosis in all segments, loss of epithelial lining; and 5=very severe injury characterized by extensive tubular epithelial necrosis in all segments, loss of epithelial layer from many tubules widespread intraluminal cellular debris, and frequent hyaline casts particularly prominent in the medullary region (67).
(§1) Total RNA from kidney samples was extracted with phenol/chloroform and subsequently precipitated in isopropanol as described previously (71). Total RNA from cultured renal cells was extracted using RNeasy Mini kit (Qiagen) following manufacturer's recommendations.
(§2) Reverse transcription was performed on 1 μg of RNA using high-capacity cDNA reverse transcription kit (Thermo Fisher), according the manufacturer's recommendation. Real time PCR was performed on a StepOne device using Taqman Gene Expression Master Mix (Thermo Fisher), following manufacturer's recommendations. […]

Data set [3] relates to RPTEC/hTERT1 cells. Briefly: Quantitative RT-PCR of Nrf2 and HO1 in RPTEC/hTERT1 cells. Type of data set: cell-based, human. Particulars: in vitro. On the procedure:
FIG. 6. KW6002 alleviates the cisplatin-induced nephrotoxicity associated with apoptosis, lipid metabolism, and oxidative stress. (A) Tail moment assessed by comet assay; 50 cells/condition were analyzed. (B and C) KW6002 attenuates cisplatin-induced renal lipid accumulation, assessed by Red Oil staining. […] Results are the mean±SEM (n=6-9 mice/group). (F-H) KW6002 attenuated cisplatin-induced oxidative stress in RPTEC/hTERT1 cells. (F and G) Gene expression of Nrf2 (F) and HO1 (G). […] Results are the mean±SEM (n=3 independent experiments).
as §1, §2

For the molecule `CCn1c(=O)c2c(nc(/C=C/c3ccc(OC)c(OC)c3)n2C)n(CC)c1=O` [KW-6002, 8-[(E)-2-(3,4-dimethoxyphenyl)vinyl]-1,3-diethyl-7-methyl-3,7-dihydro-1H-purine-2,6-dione], the “DNA damage: γH2AX nuclear foci” value in data set [1] is “increased number of H2AX+ cells”. In addition, the “histological lesions (histological score of renal injury)” value in data set [2] (SC model, FIG. 2H) was “less severe histological lesions”. The “mRNA levels of Tnfα” value in data set [2] (SC model, FIG. 2K, figure not given) was “lower mRNA levels of Tnfα”. In addition, the “mRNA levels of I16, change vs. cisplatin” value in data set [2] (SC model, kidney) is −77.5±5.6%. Moreover, in data set [2] (SC model, kidney mRNA), the “reduction of KIM-1 expression vs. cisplatin” value was −79.5±3.8%. Also, the “reduction of NGAL expression vs. cisplatin” value in data set [2] (SC model, kidney mRNA) was −82.9±1.4%. In data set [2] (SC model: cisplatin 3 mg/kg i.p. six days, KW-6002 3 mg/kg i.p. daily day-5 to day 7), the “reduction of BUN vs. cisplatin” value is listed as −70.2±5.1%. Further, the “cisplatin-induced increase in expression of Nrf2” value in data set [2] (in vivo, subchronic model, FIG. 6D) is given as “normalized”; in data set [3] (FIG. 6F), “normalized”. The “cisplatin-induced increase in expression of HO1” value in data set [2] (in vivo, subchronic model, FIG. 6E) was “normalized”; in data set [3] (FIG. 6G) it was “normalized”. For the same molecule, the “effect on platinum accumulation in kidneys” value in data set [2] (independent experiment, animals of FIGS. 2G-2L) was “replicated”.
